Experimental data: US9890133B2 (priority 2011, dated 2018)
Values after ≈ are worked out from the molar mass of the structure shown.

Assay: in vitro
Settings: human

Going from `CC(C)C(=O)NC12C(=O)c3c(N)cccc3C1(O)Oc1cc(C(C)C)ccc12` (stereo not shown) [Example 77, N-(1-Amino-4b-hydroxy-7-isopropyl-10-oxo-4b,10-dihydro-5-oxa-indeno[2,1-a]inden-9b-yl)-isobutylamide] to `CCCCC(=O)NC12C(=O)c3c(N)cccc3C1(O)Oc1cc(C(C)C)ccc12` (stereo not shown) [Example 78, Pentanoic acid (1-amino-4b-hydroxy-7-isopropyl-10-oxo-4b,10-dihydro-5-oxa-indeno[2,1-a]inden-9b-yl)-amide], the CC50 falls from 53.9 µg/mL (≈ 142 µM) to 20.6 µg/mL (≈ 52.3 µM) (2.6-fold).

`CCCCCCCC(=O)N[C@@]12C(=O)c3c(N)cccc3[C@]1(O)Oc1cc(C(C)C)ccc12` [Example 93, N-((4bS,9bS)-1-Amino-4b-hydroxy-7-isopropyl-10-oxo-9b,10-dihydro-4bH-indeno[1,2-b]benzofuran-9b-yl)octanamide] and `CCCCCC(=O)NC12C(=O)c3c(N)cccc3C1(OC(=O)CCCCC)Oc1cc(C(C)C)ccc12` (stereo not shown) [Example 97, 1-amino-9b-hexanamido-7-isopropyl-10-oxo-9b,10-dihydro-4bH-benzo[d]indeno[1,2-b]furan-4b-yl hexanoate] are within 1.5-fold of each other in CC50: 6.23 µg/mL (≈ 14.3 µM) for the first, 8.8 µg/mL (≈ 17.4 µM) for the second.

Compared with `CCC(=O)N[C@@]12C(=O)c3c(N)cccc3[C@]1(OC(=O)CC)Oc1cc(C(C)C)ccc12` [Example 94, (4bR,9bS)-1-Amino-7-isopropyl-10-oxo-9b-propionamido-9b,10-dihydro-4bH-indeno[1,2-b]benzofuran-4b-yl propionate], `CCCC(=O)N[C@@]12C(=O)c3c(N)cccc3[C@]1(OC(=O)CCC)Oc1cc(C(C)C)ccc12` [Example 95, (4bR,9bS)-1-Amino-9b-butyramido-7-isopropyl-10-oxo-9b,10-dihydro-4bH-indeno[1,2-b]benzofuran-4b-yl butyrate] is 2.2-fold lower in CC50: 58.1 µg/mL (≈ 137 µM) for the first, 26 µg/mL (≈ 57.7 µM) for the second.

With `CCCCCCC(=O)NC12C(=O)c3c(N)cccc3C1(OC(=O)CCCCCC)Oc1cc(C(C)C)ccc12` (stereo not shown) [Example 99, 1-Amino-9b-heptanamido-7-isopropyl-10-oxo-9b,10-dihydro-4bH-benzo[d]indeno[1,2-b]furan-4b-yl heptanoate] the CC50 was 7.7 µg/mL (≈ 14.4 µM).

Same assay, conditions: human, Picorana CC50

First: CC(=O)Nc1c(N)ccc2c1C(=O)C1(O)c3ccc(C(C)C)cc3OC21O (stereo not shown) [Example 59, N-(2-Amino-4b,9b-dihydroxy-7-isopropyl-10-oxo-9b,10-dihydro-4bH-benzo[d]indeno[1,2-b]furan-1-yl)acetamide]
Second: CC(C)c1ccc2c(c1)OC1(O)c3ccc([N+](=O)[O-])c(N)c3C(=O)C21O (stereo not shown) [Example 60, 1-Amino-4b,9b-dihydroxy-7-isopropyl-2-nitro-4bH-indeno[1,2-b]benzofuran-10(9bH)-one]
The CC50 of the first is higher: over 50 µg/mL for the first, 10.6 µg/mL (≈ 29.6 µM) for the second.

`CC(C)c1cc(C(C)C)c2c(c1)C1(O)C(=O)c3ccccc3C1(O)O2` (stereo not shown) [Example 64, 4b,9b-Dihydroxy-6,8-diisopropyl-4b,9b-dihydro-5-oxa-indeno[2,1-a]inden-10-one] and `CC(C)c1cc(C(C)C)c2c(c1)C1(N)C(=O)c3ccccc3C1(O)O2` (stereo not shown) [Example 68, 9b-Amino-4b-hydroxy-6,8-diisopropyl-4b,9b-dihydro-5-oxa-indeno[2,1-a]inden-10-one] are within 1.5-fold of each other in CC50: 8.13 µg/mL (≈ 24 µM) for the first, 8.94 µg/mL (≈ 26.5 µM) for the second.

Compared with `CC(C)c1ccc2c(c1)OC1(O)c3ccccc3C(=O)C21N` (stereo not shown) [Example 65, 9b-Amino-4b-hydroxy-7-isopropyl-4b,9b-dihydro-5-oxa-indeno[2,1-a]inden-10-one], `CO[C@@]12C(=O)c3ccccc3[C@]1(O)Oc1cc(C(C)C)ccc12` [Example 98, (4bS,9bS)-4b-Hydroxy-7-isopropyl-9b-methoxy-4bH-indeno[1,2-b]benzofuran-10(9bH)-one] is 2.3-fold lower in CC50: 18.2 µg/mL (≈ 61.6 µM) for the first, 7.8 µg/mL (≈ 25.1 µM) for the second.

Going from `CCCCCCNC12C(=O)c3ccccc3C1(O)Oc1cc(C(C)C)ccc12` (stereo not shown) [Example 67, 9b-Hexylamino-4b-hydroxy-7-isopropyl-4b,9b-dihydro-5-oxa-indeno[2,1-a]inden-10-one] to `CCCCCCCC(=O)NC12C(=O)c3ccccc3C1(O)Oc1cc(C(C)C)ccc12` (stereo not shown) [Example 90], the CC50 rises from 9.42 µg/mL (≈ 24.8 µM) to 34 µg/mL (≈ 80.5 µM) (3.6-fold).

`CC(C)c1ccc2c(c1)OC1(O)c3ccccc3C(=O)C21N=C=O` (stereo not shown) [Example 69, 4b-Hydroxy-9b-isocyanato-7-isopropyl-4b,9b-dihydro-5-oxa-indeno[2,1-a]-inden-10-one] and `CNC(=O)N[C@@]12C(=O)c3ccccc3[C@]1(O)Oc1cc(C(C)C)ccc12` [Example 101, 1-((4bS,9bS)-4b-Hydroxy-7-isopropyl-10-oxo-9b,10-dihydro-4bH-indeno[1,2-b]benzofuran-9b-yl)-3-methylurea] cannot be ordered by CC50: 70 µg/mL (≈ 218 µM) for the first, over 50 µg/mL for the second.

`CC(C)NC(=O)NC12C(=O)c3c([N+](=O)[O-])cccc3C1(O)Oc1cc(C(C)C)ccc12` (stereo not shown) [Example 76, 1-(4b-Hydroxy-7-isopropyl-1-nitro-10-oxo-4b,10-dihydro-5-oxa-indeno[2,1-a]inden-9b-yl)-3-isopropyl-urea] and `CC(C)C(=O)NC12C(=O)c3c(N)cccc3C1(O)Oc1cc(C(C)C)ccc12` (stereo not shown) [Example 77, N-(1-Amino-4b-hydroxy-7-isopropyl-10-oxo-4b,10-dihydro-5-oxa-indeno[2,1-a]inden-9b-yl)-isobutylamide] cannot be ordered by CC50: over 50 µg/mL for the first, over 50 µg/mL for the second.

First: CCCCC(=O)NC12C(=O)c3c(N)cccc3C1(O)Oc1cc(C(C)C)ccc12 (stereo not shown) [Example 78, Pentanoic acid (1-amino-4b-hydroxy-7-isopropyl-10-oxo-4b,10-dihydro-5-oxa-indeno[2,1-a]inden-9b-yl)-amide]
Second: CCCCCCCC(=O)N[C@@]12C(=O)c3c(N)cccc3[C@]1(O)Oc1cc(C(C)C)ccc12 [Example 93, N-((4bS,9bS)-1-Amino-4b-hydroxy-7-isopropyl-10-oxo-9b,10-dihydro-4bH-indeno[1,2-b]benzofuran-9b-yl)octanamide]
The CC50 of the first is 5.6-fold higher: 47.7 µg/mL (≈ 121 µM) for the first, 8.49 µg/mL (≈ 19.4 µM) for the second.

First: CO/N=C1/c2ccccc2C2(O)Oc3cc(C(C)C)ccc3C12O (stereo not shown) [Example 88, 4b,9b-Dihydroxy-7-isopropyl-4bH-indeno[1,2-b]benzofuran-10(9bH)-one O-methyl oxime]
Second: CONC(=O)N[C@@]12C(=O)c3ccccc3[C@]1(O)Oc1cc(C(C)C)ccc12 [Example 103, 1-((4bS,9bS)-4b-Hydroxy-7-isopropyl-10-oxo-9b,10-dihydro-4bH-indeno[1,2-b]benzofuran-9b-yl)-3-methoxyurea]
The CC50 of the first is lower: 8.16 µg/mL (≈ 25.1 µM) for the first, over 50 µg/mL for the second.

`CCCC(=O)NC12C(=O)c3ccccc3C1(OC(=O)CCC)Oc1cc(C(C)C)ccc12` (stereo not shown) [Example 89, Butyric acid 9b-butyrylamino-7-isopropyl-10-oxo-9b,10-dihydro-5-oxa-indeno[2,1-a]inden-4b-yl ester] and `CCCCCC(=O)NC12C(=O)c3ccccc3C1(OC(=O)CCCCC)Oc1cc(C(C)C)ccc12` (stereo not shown) [Example 91, Hexanoic acid 9b-hexanoylamino-7-isopropyl-10-oxo-9b,10-dihydro-5-oxa-indeno[2,1-a]inden-4b-yl ester] cannot be ordered by CC50: over 50 µg/mL for the first, over 50 µg/mL for the second.

`CCCCCCC(=O)NC12C(=O)c3ccccc3C1(OC(=O)CCCCCC)Oc1cc(C(C)C)ccc12` (stereo not shown) [Example 92, Heptanoic acid 9b-heptanoylamino-7-isopropyl-10-oxo-9b,10-dihydro-5-oxa-indeno[2,1-a]inden-4b-yl ester] and `CCCCCCC(=O)NC12C(=O)c3c(N)cccc3C1(OC(=O)CCCCCC)Oc1cc(C(C)C)ccc12` (stereo not shown) [Example 99, 1-Amino-9b-heptanamido-7-isopropyl-10-oxo-9b,10-dihydro-4bH-benzo[d]indeno[1,2-b]furan-4b-yl heptanoate] cannot be ordered by CC50: over 50 µg/mL for the first, over 50 µg/mL for the second.

`CCC(=O)N[C@@]12C(=O)c3c(N)cccc3[C@]1(OC(=O)CC)Oc1cc(C(C)C)ccc12` [Example 94, (4bR,9bS)-1-Amino-7-isopropyl-10-oxo-9b-propionamido-9b,10-dihydro-4bH-indeno[1,2-b]benzofuran-4b-yl propionate] and `CCCC(=O)N[C@@]12C(=O)c3c(N)cccc3[C@]1(OC(=O)CCC)Oc1cc(C(C)C)ccc12` [Example 95, (4bR,9bS)-1-Amino-9b-butyramido-7-isopropyl-10-oxo-9b,10-dihydro-4bH-indeno[1,2-b]benzofuran-4b-yl butyrate] are within 1.5-fold of each other in CC50: 42.4 µg/mL (≈ 100 µM) for the first, 38.1 µg/mL (≈ 84.5 µM) for the second.

Going from `CCCCCC(=O)NC12C(=O)c3c(N)cccc3C1(OC(=O)CCCCC)Oc1cc(C(C)C)ccc12` (stereo not shown) [Example 97, 1-amino-9b-hexanamido-7-isopropyl-10-oxo-9b,10-dihydro-4bH-benzo[d]indeno[1,2-b]furan-4b-yl hexanoate] to `CCCCC(=O)OC12Oc3cc(C(C)C)ccc3C1(NC(C)=O)C(=O)c1ccccc12` (stereo not shown) [Example 112, 9b-Acetamido-7-isopropyl-10-oxo-9b,10-dihydro-4bH-indeno[1,2-b]benzofuran-4b-yl pentanoate], the CC50 falls from over 50 µg/mL to 42 µg/mL (≈ 99.6 µM).

`CO[C@@]12Oc3cc(C(C)C)ccc3[C@]1(NC(N)=O)C(=O)c1ccccc12` [Example 100, 1-((4bS,9bS)-7-Isopropyl-4b-methoxy-10-oxo-9b,10-dihydro-4bH-indeno[1,2-b]benzofuran-9b-yl)urea] and `COC(=O)OC12Oc3cc(C(C)C)ccc3C1(NC(C)=O)C(=O)c1ccccc12` (stereo not shown) [Example 111, 9b-Acetamido-7-isopropyl-10-oxo-9b,10-dihydro-4bH-indeno[1,2-b]benzofuran-4b-yl methyl carbonate] are within 1.5-fold of each other in CC50: 40.6 µg/mL (≈ 115 µM) for the first, 43.6 µg/mL (≈ 110 µM) for the second.

Going from `CCNC(=O)N[C@@]12C(=O)c3ccccc3[C@]1(O)Oc1cc(C(C)C)ccc12` [Example 102, 1-Ethyl-3-((4bS,9bS)-4b-hydroxy-7-isopropyl-10-oxo-9b,10-dihydro-4bH-indeno[1,2-b]benzofuran-9b-yl)urea] to `CC(=O)NC12Oc3cc(C(C)C)ccc3C1(NC(C)=O)C(=O)c1ccccc12` (stereo not shown) [Example 119], the CC50 falls from over 50 µg/mL to 38.2 µg/mL (≈ 101 µM).

`CC(=O)N1c2cc(C)c(C)cc2C2(O)C(=O)c3ccccc3C12O` (stereo not shown) [Example 104, 5-Acetyl-4b,9b-dihydroxy-7,8-dimethyl-4b,5-dihydroindeno[1,2-b]indol-10(9bH)-one] and `CCC(=O)N1c2cc(C)c(C)cc2C2(O)C(=O)c3ccccc3C12O` (stereo not shown) [Example 105, 4b,9b-Dihydroxy-7,8-dimethyl-5-propionyl-4b,5-dihydroindeno[1,2-b]indol-10(9bH)-one] cannot be ordered by CC50: over 50 µg/mL for the first, over 50 µg/mL for the second.

Compared with `Cc1cc2c(cc1C)C1(O)C(=O)c3ccccc3C1(O)N2` (stereo not shown) [Example 106, 4b,9b-Dihydroxy-7,8-dimethyl-4b,5-dihydroindeno[1,2-b]indol-10(9bH)-one], `CC(=O)OC12C(=O)c3ccccc3C1(OC(C)=O)N(C(C)=O)c1cc(C)c(C)cc12` (stereo not shown) [Example 107, 5-Acetyl-7,8-dimethyl-10-oxo-4b,5,9b,10-tetrahydroindeno[1,2-b]indole-4b,9b-diyl diacetate] is higher in CC50: 3.53 µg/mL (≈ 12.5 µM) for the first, over 50 µg/mL for the second.

First: CC(=O)N1c2ccccc2C2(N)C(=O)c3ccccc3C12O (stereo not shown) [Example 108, 5-Acetyl-9b-amino-4b-hydroxy-5,9b-dihydro-4bH-indeno[1,2-b]indol-10-one]
Second: CC(C)c1ccc2c(c1)OC1(OCc3ccccc3)c3ccccc3C(=O)C21O (stereo not shown) [Example 120, 4b-(Benzyloxy)-9b-hydroxy-7-isopropyl-4bH-indeno[1,2-b]benzofuran-10(9bH)-one]
The CC50 of the first is 4.5-fold lower: 1.81 µg/mL (≈ 6.15 µM) for the first, 8.16 µg/mL (≈ 21.1 µM) for the second.

Going from `CC(=O)Nc1ccc([N+](=O)[O-])c2c1C(=O)C1(N)c3ccc(C(C)C)cc3OC21O` (stereo not shown) [Example 109, N-(9b-Amino-4b-hydroxy-7-isopropyl-4-nitro-10-oxo-9b,10-dihydro-4bH-5-oxa-indeno[2,1-a]inden-1-yl)-acetamide] to `CC(=O)Nc1ccc([N+](=O)[O-])c2c1C(=O)C1(NC(C)=O)c3ccc(C(C)C)cc3OC21OC(C)=O` (stereo not shown) [Example 110, Acetic acid 1,9b-bis-acetylamino-7-isopropyl-4-nitro-10-oxo-9b,10-dihydro-5-oxa-indeno[2,1-a]inden-4b-yl ester], the CC50 falls from over 50 µg/mL to 14.4 µg/mL (≈ 29.9 µM).

First: CCOC(=O)OC12Oc3cc(C(C)C)ccc3C1(NC(C)=O)C(=O)c1ccccc12 (stereo not shown) [Example 116, 9b-Acetamido-7-isopropyl-10-oxo-9b,10-dihydro-4bH-benzo[d]indeno[1,2-b]furan-4b-yl ethyl carbonate]
Second: CNC(=O)OC12Oc3cc(C(C)C)ccc3C1(NC(C)=O)C(=O)c1ccccc12 (stereo not shown) [Example 118, 9b-Acetamido-7-isopropyl-10-oxo-9b,10-dihydro-4bH-benzo[d]indeno[1,2-b]furan-4b-yl methylcarbamate]
The CC50 of the first is lower: 41.7 µg/mL (≈ 102 µM) for the first, over 50 µg/mL for the second.

Work on `CC(=O)NC12C(=O)c3ccccc3C1(OC(=O)C(C)(C)C)Oc1cc(C(C)C)ccc12` (stereo not shown) [Example 117, 9b-Acetamido-7-isopropyl-10-oxo-9b,10-dihydro-4bH-benzo[d]indeno[1,2-b]furan-4b-yl pivalate] yielded a CC50 of over 50 µg/mL.
